Results as given in US20110245249A1, “Heterocyclically Substituted Anilinopyrimidines” (Bayer CropScience AG, priority 2008, published 2011).

Assay: logP by HPLC on reversed-phase columns (EEC Directive 79/831 Annex V.A8)
Type: physicochemical
Conditions: for log p [b]: pH 2.7; for log p [c]: pH 7.8; for log p [a]: pH 2.3
Method: The logP values were measured in accordance with EEC Directive 79/831 Annex V.A8 by HPLC (High Performance Liquid Chromatography) on reversed-phase columns (C 18) using the methods below:
[a] The determination was carried out in the acidic range at pH 2.3 using the mobile phases 0.1% aqueous phosphoric acid and acetronitrile linear gradient from 10% acetonitrile to 95% acetronitrile. [b] The LC-MS determination in the acid range was carried out at pH 2.7 using the mobile phases 0.1% aqueous formic acid and acetonitrile (contains 0.1% formic acid) linear gradient from 10% acetonitrile to 95% acetonitrile. [c] The LC-MS determination in the neutral range was carried out at pH 7.8 using the mobile phases 0.001 molar aqueous ammonium bicarbonate solution and acetonitrile linear gradient from 10% acetonitrile to 95% acetonitrile.

2-Chloro-{[5-chloro-4-(cyclopropylamino)pyrimidin-2-yl]amino}benzenecarbaldehyde
logP (pH 2.7) (pH 2.7, LC-MS, 0.1% aqueous formic acid/acetonitrile): 2.68

CC(=O)c1cccc(Nc2ncc(C(F)(F)F)c(NC3CCC3)n2)c1 [1-(3-{[4-(Cyclobutylamino)-5-(trifluoromethyl)pyrimidin-2-yl]amino}phenyl)ethanone]
chromatographic logP (pH 2.7, logP (pH 2.7)): 3.24

CC(=O)c1cccc(Nc2ncc(C(F)(F)F)c(NC3CC3)n2)c1 [1-(3-{[4-(Cyclopropylamino)-5-(trifluoromethyl)pyrimidin-2-yl]amino}phenyl)ethanone]
chromatographic logP (pH 2.7, logP (pH 2.7)): 2.72

CC(=O)c1cccc(Nc2ncc(Cl)c(NC3CC3)n2)c1 [1-(3-{[5-Chloro-4-(cyclopropylamino)pyrimidin-2-yl]amino}phenyl)ethanone]
chromatographic logP (pH 2.7, logP (pH 2.7)): 1.75

CCC(=O)c1cccc(Nc2ncc(Cl)c(NC3CC3)n2)c1 [1-(3-{[5-Chloro-4-(cyclopropylamino)pyrimidin-2-yl]amino}phenyl)propan-1-one]
chromatographic logP (pH 2.7, logP (pH 2.7)): 2.25

CC(=O)c1ccc(Nc2ncc(Cl)c(NC3CC3)n2)cc1 [1-(4-{[5-Chloro-4-(cyclopropylamino)pyrimidin-2-yl]amino}phenyl)ethanone]
chromatographic logP (pH 2.7, logP (pH 2.7)): 1.93

CC(=O)c1cccc(Nc2ncc(C(F)(F)F)c(NCC3CC3)n2)c1 [1-[3-({4-[(Cyclopropylmethyl)amino]-5-(trifluoromethyl)pyrimidin-2-yl}amino)phenyl]-ethanone]
chromatographic logP (pH 2.7, logP (pH 2.7)): 2.77

CC1CC1Nc1nc(Nc2cccc(C=O)c2)ncc1Cl (stereo not shown) [3-((5-Chloro-4-[(2-methylcyclopropyl)amino]pyrimidin-2-yl)amino)benzaldehyde]
chromatographic logP (pH 2.3, logP (pH 2.3)): 2.11

COCC(C)Nc1nc(Nc2cccc(C=O)c2)ncc1Cl (stereo not shown) [3-({5-Chloro-4-[(1-methoxypropan-2-yl)amino]pyrimidin-2-yl}amino)benzenecarbaldehyde]
chromatographic logP (pH 2.7, logP (pH 2.7)): 1.8

O=Cc1cccc(Nc2ncc(Cl)c(NCC(F)(F)F)n2)c1 [3-({5-Chloro-4-[(2,2,2-trifluoroethyl)amino]pyrimidin-2-yl}amino)benzenecarbaldehyde]
chromatographic logP (pH 2.7, logP (pH 2.7)): 2.46

O=Cc1cccc(Nc2ncc(Cl)c(NCC(F)F)n2)c1 [3-({5-Chloro-4-[(2,2-difluoroethyl)amino]pyrimidin-2-yl}amino)benzenecarbaldehyde]
chromatographic logP (pH 2.7, logP (pH 2.7)): 2.01

O=Cc1cccc(Nc2ncc(Cl)c(NCC3CC3)n2)c1 [3-({5-Chloro-4-[(cyclopropylmethyl)amino]pyrimidin-2-yl}amino)benzenecarbaldehyde]
chromatographic logP (pH 2.7, logP (pH 2.7)): 1.94

CN(c1nc(Nc2cccc(C=O)c2)ncc1Cl)C1CC1 [3-({5-Chloro-4-[cyclopropyl(methyl)amino]pyrimidin-2-yl}amino)benzenecarbaldehyde]
chromatographic logP (pH 2.7, logP (pH 2.7)): 2.84

O=Cc1cccc(Nc2ncc(C(F)(F)F)c(NC3CCC3)n2)c1 [3-{[4-(Cyclobutylamino)-5-(trifluoromethyl)pyrimidin-2-yl]amino}benzenecarbaldehyde]
chromatographic logP (pH 2.7, logP (pH 2.7)): 3.26

O=Cc1cccc(Nc2ncc(C(F)(F)F)c(NC3CC3)n2)c1 [3-{[4-(Cyclopropylamino)-5-(trifluoromethyl)pyrimidin-2-yl]amino}benzenecarbaldehyde]
chromatographic logP (pH 2.7, logP (pH 2.7)): 2.73

O=Cc1cccc(Nc2ncc(F)c(NC3CC3)n2)c1 [3-{[4-(Cyclopropylamino)-5-fluoropyrimidin-2-yl]amino}benzenecarbaldehyde]
chromatographic logP (pH 2.7, logP (pH 2.7)): 1.26

O=Cc1cccc(Nc2ncc(I)c(NC3CC3)n2)c1 [3-{[4-(Cyclopropylamino)-5-iodopyrimidin-2-yl]amino}benzenecarbaldehyde]
chromatographic logP (pH 2.7, logP (pH 2.7)): 1.96

Cc1cnc(Nc2cccc(C=O)c2)nc1NC1CC1 [3-{[4-(Cyclopropylamino)-5-methylpyrimidin-2-yl]amino}benzenecarbaldehyde]
chromatographic logP (pH 2.7, logP (pH 2.7)): 1.13

O=Cc1cccc(Nc2ncc(Br)c(NC3CCC3)n2)c1 [3-{[5-Bromo-4-(cyclobutylamino)pyrimidin-2-yl]amino}benzenecarbaldehyde]
chromatographic logP (pH 2.7, logP (pH 2.7)): 2.35

O=Cc1cccc(Nc2ncc(Br)c(NC3CC3)n2)c1 [3-{[5-Bromo-4-(cyclopropylamino)pyrimidin-2-yl]amino}benzenecarbaldehyde]
chromatographic logP (pH 2.7, logP (pH 2.7)): 1.93

O=Cc1cccc(Nc2ncc(Cl)c(NC3CCC3)n2)c1 [3-{[5-Chloro-4-(cyclobutylamino)pyrimidin-2-yl]amino}benzenecarbaldehyde]
chromatographic logP (pH 2.7, logP (pH 2.7)): 2.16

O=Cc1cccc(Nc2ncc(Cl)c(NC3CC3)n2)c1 [3-{[5-Chloro-4-(cyclopropylamino)pyrimidin-2-yl]amino}benzenecarbaldehyde]
chromatographic logP (pH 2.7, logP (pH 2.7)): 1.82

CC(C)Nc1nc(Nc2cccc(C=O)c2)ncc1Cl [3-{[5-Chloro-4-(isopropylamino)pyrimidin-2-yl]amino}benzaldehyde]
chromatographic logP (pH 2.7, logP (pH 2.7)): 1.86

C#CCNc1nc(Nc2cccc(C=O)c2)ncc1Cl [3-{[5-Chloro-4-(prop-2-yn-1-ylamino)pyrimidin-2-yl]amino}benzenecarbaldehyde]
chromatographic logP (pH 2.7, logP (pH 2.7)): 1.74

CC1(C)COC(c2cccc(Nc3ncc(Cl)c(NC4CC4)n3)c2)OC1 [Example 2]
log p [b]: 2.45[b]

CC1OC(c2cccc(Nc3ncc(Cl)c(NC4CC4)n3)c2)OC1C (stereo not shown) [Example 3]
log p [b]: 2.2[b]

SCCOC(OCCS)c1cccc(Nc2ncc(Cl)c(NC3CC3)n2)c1 [Example 4]
log p [b]: 1.36
log p [c]: 2.03

CCC1COC(c2cccc(Nc3ncc(Cl)c(NC4CC4)n3)c2)O1 (stereo not shown) [Example 7]
log p [b]: 2.29
log p [c]: 3.48

CC1COC(c2cccc(Nc3ncc(Cl)c(NC4CC4)n3)c2)O1 (stereo not shown) [Example 8]
log p [b]: 1.9[b]

CC1CC(C)OC(c2cccc(Nc3ncc(Cl)c(NC4CC4)n3)c2)O1 (stereo not shown) [Example 9]
log p [b]: 2.26
log p [c]: 3.51

CC1(c2cccc(Nc3ncc(C(F)(F)F)c(NCC4CC4)n3)c2)OCCO1 [Example 10]
log p [a]: 3.16
log p [b]: 3.15[b]
log p [c]: 3.79

CC1(c2cccc(Nc3ncc(C(F)(F)F)c(NC4CC4)n3)c2)OCCO1 [Example 11]
log p [b]: 3.03
log p [c]: 3.46

Brc1cnc(Nc2cccc(C3OCCO3)c2)nc1NC1CC1 [Example 13]
log p [b]: 1.75
log p [c]: 2.82

Brc1cnc(Nc2cccc(C3OCCCO3)c2)nc1NC1CC1 [Example 15]
log p [c]: 2.97

CC1OC(c2cccc(Nc3ncc(Br)c(NC4CCC4)n3)c2)OC1C (stereo not shown) [Example 17]
log p [b]: 2.67
log p [c]: 4.12

Clc1cnc(Nc2cccc(C3OCCO3)c2)nc1NCC1CC1 [Example 18]
log p [b]: 1.73
log p [c]: 3.06

CC1(C)COC(c2cccc(Nc3ncc(Cl)c(NC4CCC4)n3)c2)OC1 [Example 19]
log p [a]: 2.29
log p [b]: 2.57[b]
log p [c]: 4.13

Brc1cnc(Nc2cccc(C3OCCO3)c2)nc1NC1CCC1 [Example 20]
log p [b]: 2.05
log p [c]: 3.39

CC1(C)COC(c2cccc(Nc3ncc(Br)c(NC4CCC4)n3)c2)OC1 [Example 21]
log p [b]: 3
log p [c]: 4.51

CC1(C)COC(c2cccc(Nc3ncc(C(F)(F)F)c(NC4CC4)n3)c2)OC1 [Example 25]
log p [b]: 3.7
log p [c]: 4.07

CC1(C)COC(c2cccc(Nc3ncc(C(F)(F)F)c(NC4CCC4)n3)c2)OC1 [Example 26]
log p [b]: 4.22
log p [c]: 4.62

Clc1cnc(Nc2cccc(C3OCC(c4ccccc4)O3)c2)nc1NC1CC1 (stereo not shown) [Example 29]
log p [c]: 3.93[c]

Clc1cnc(Nc2cccc(C3OCCO3)c2)nc1NC1CCC1 [Example 31]
log p [b]: 1.91
log p [c]: 3.23

Clc1cnc(Nc2cccc(C3OC4COCC4O3)c2)nc1NC1CC1 (stereo not shown) [Example 32]
log p [b]: 1.55[b]

ClCC1COC(c2cccc(Nc3ncc(Cl)c(NC4CC4)n3)c2)O1 (stereo not shown) [Example 33]
log p [a]: 1.85
log p [b]: 2.19

C=CCOCC1COC(c2cccc(Nc3ncc(Cl)c(NC4CC4)n3)c2)O1 (stereo not shown) [Example 34]
log p [b]: 2.25
log p [c]: 3.39

Clc1cnc(Nc2cccc(C3SCCCS3)c2)nc1NC1CC1 [Example 35, 5-Chloro-N^4-cyclopropyl-N^2-[3-(1,3-dithian-2-yl)phenyl]pyrimidine-2,4-diamine]
chromatographic logP (pH 2.7, log p [b]): 2.44
chromatographic logP (pH 2.7, logP (pH 2.7)): 2.44
chromatographic logP (pH 7.8, log p [c]): 3.65

COc1ccc(OCC2COC(c3cccc(Nc4ncc(Cl)c(NC5CC5)n4)c3)O2)cc1 (stereo not shown) [Example 36]
log p [b]: 2.64
log p [c]: 3.78

O=[N+]([O-])c1ccccc1C1COC(c2cccc(Nc3ncc(Cl)c(NC4CC4)n3)c2)O1 (stereo not shown) [Example 37]
log p [b]: 2.89
log p [c]: 4

CCCCCCC1COC(c2cccc(Nc3ncc(Cl)c(NC4CC4)n3)c2)O1 (stereo not shown) [Example 38]
log p [b]: 4.14
log p [c]: 5.29

CCCCC1COC(c2cccc(Nc3ncc(Cl)c(NC4CC4)n3)c2)O1 (stereo not shown) [Example 39]
log p [b]: 3.16
log p [c]: 4.4

CCN(CC)CC1COC(c2cccc(Nc3ncc(Cl)c(NC4CC4)n3)c2)O1 (stereo not shown) [Example 40, 5-Chloro-N^4-cyclopropyl-N^2-(3-{4-[(diethylamino)methyl]-1,3-dioxolan-2-yl}phenyl)-pyrimidine-2,4-diamine]
chromatographic logP (pH 2.7, log p [b]): 1.07
chromatographic logP (pH 2.7, logP (pH 2.7)): 1.05
chromatographic logP (pH 7.8, log p [c]): 3.9

Clc1cnc(Nc2cccc(C3OCC(CN4CCOCC4)O3)c2)nc1NC1CC1 (stereo not shown) [Example 41]
log p [c]: 2.54[c]

OCC1COC(c2cccc(Nc3ncc(Cl)c(NC4CC4)n3)c2)O1 (stereo not shown) [Example 42]
log p [b]: 1.16
log p [c]: 1.96

Clc1cnc(Nc2cccc(C3OCC(CN4CCCC4)O3)c2)nc1NC1CC1 (stereo not shown) [Example 43]
log p [b]: 0.99[b]
